Measurements from patent US10670605B2, “Cysteine reactive probes and uses thereof” (The Scripps Research Institute, priority 2015, dated 2020).
Entries after “also recorded” stand apart in the source; their conditions may differ.

Tests used:
Assay in all cases: Competitive isoTOP-ABPP in situ (fragment-treated cells)
[1] = biological target: T1, cysteines in MDA-MB-231 and Ramos cells (Homo sapiens, UniProt P10398); format: cell-based; details: 200 μM, insitu
T1 sequence (P10398 1-606): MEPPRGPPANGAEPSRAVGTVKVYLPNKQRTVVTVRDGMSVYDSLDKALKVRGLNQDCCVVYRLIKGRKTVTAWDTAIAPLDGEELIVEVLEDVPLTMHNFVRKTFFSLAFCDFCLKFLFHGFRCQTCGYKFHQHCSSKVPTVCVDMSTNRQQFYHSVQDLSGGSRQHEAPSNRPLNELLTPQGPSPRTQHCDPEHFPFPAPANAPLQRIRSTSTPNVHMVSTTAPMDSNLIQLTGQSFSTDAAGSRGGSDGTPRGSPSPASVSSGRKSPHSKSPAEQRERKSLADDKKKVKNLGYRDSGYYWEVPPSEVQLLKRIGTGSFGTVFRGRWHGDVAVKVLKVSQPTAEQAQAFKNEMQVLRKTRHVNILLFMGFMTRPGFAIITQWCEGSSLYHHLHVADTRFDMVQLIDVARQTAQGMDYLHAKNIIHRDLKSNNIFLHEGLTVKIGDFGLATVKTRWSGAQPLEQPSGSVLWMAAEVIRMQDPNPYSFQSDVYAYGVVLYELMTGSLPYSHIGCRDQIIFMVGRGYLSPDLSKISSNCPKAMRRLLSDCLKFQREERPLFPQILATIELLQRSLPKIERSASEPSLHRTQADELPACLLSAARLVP

[2] = biological target: T2, cysteines in MDA-MB-231 and Ramos cells (Homo sapiens, UniProt Q16667); format: cell-based; details: 200 μM, insitu
T2 sequence (Q16667 1-212): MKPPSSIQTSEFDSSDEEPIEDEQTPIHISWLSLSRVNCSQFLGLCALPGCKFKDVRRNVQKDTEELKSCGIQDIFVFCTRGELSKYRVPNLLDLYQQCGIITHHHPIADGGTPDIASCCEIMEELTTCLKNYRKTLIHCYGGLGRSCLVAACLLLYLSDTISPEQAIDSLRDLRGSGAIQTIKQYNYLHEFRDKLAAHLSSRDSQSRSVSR

[3] = biological target: T3, cysteines in MDA-MB-231 and Ramos cells (Homo sapiens, UniProt Q8N2W9); format: cell-based; details: 200 μM, insitu
T3 sequence (Q8N2W9 1-510): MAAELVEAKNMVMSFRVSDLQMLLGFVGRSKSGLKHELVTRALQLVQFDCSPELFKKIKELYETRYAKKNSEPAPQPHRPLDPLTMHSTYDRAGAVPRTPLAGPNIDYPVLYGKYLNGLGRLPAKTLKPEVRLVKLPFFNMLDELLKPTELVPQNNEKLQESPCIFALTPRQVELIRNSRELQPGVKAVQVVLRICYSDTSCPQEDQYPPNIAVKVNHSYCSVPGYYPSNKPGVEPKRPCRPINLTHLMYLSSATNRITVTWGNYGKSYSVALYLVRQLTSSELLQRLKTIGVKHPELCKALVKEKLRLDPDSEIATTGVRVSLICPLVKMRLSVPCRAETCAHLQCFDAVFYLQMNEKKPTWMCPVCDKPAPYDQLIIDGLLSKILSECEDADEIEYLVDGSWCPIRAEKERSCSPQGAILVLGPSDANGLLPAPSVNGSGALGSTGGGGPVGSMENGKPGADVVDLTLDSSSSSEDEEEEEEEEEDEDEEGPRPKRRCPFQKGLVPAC

[4] = biological target: T4, cysteines in MDA-MB-231 and Ramos cells (Homo sapiens, UniProt Q99798); format: cell-based; details: 200 μM, insitu, 231
T4 sequence (Q99798 28-780): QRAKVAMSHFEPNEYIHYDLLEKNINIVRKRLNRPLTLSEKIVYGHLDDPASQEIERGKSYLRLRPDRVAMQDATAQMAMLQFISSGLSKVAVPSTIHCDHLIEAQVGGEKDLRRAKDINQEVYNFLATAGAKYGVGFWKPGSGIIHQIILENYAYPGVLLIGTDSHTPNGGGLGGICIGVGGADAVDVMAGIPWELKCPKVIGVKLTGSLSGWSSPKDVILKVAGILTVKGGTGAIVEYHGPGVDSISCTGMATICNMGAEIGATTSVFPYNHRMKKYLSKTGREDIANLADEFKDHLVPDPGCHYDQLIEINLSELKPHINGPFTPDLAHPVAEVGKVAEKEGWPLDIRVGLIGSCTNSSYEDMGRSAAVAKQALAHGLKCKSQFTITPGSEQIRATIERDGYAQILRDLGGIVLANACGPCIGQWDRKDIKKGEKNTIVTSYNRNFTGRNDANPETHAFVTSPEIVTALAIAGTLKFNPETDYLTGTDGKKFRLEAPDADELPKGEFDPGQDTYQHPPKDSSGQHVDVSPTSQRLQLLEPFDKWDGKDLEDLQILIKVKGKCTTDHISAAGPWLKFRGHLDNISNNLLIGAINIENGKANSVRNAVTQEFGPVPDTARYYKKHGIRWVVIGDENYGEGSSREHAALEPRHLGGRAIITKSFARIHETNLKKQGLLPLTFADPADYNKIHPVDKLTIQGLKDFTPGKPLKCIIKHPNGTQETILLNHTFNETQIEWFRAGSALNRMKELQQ

[5] = biological target: cysteines in MDA-MB-231 and Ramos cells (Homo sapiens, UniProt O00541); format: cell-based
Sequence of cysteines in MDA-MB-231 and Ramos cells (Homo sapiens, UniProt O00541) (O00541 whole entry, looked up): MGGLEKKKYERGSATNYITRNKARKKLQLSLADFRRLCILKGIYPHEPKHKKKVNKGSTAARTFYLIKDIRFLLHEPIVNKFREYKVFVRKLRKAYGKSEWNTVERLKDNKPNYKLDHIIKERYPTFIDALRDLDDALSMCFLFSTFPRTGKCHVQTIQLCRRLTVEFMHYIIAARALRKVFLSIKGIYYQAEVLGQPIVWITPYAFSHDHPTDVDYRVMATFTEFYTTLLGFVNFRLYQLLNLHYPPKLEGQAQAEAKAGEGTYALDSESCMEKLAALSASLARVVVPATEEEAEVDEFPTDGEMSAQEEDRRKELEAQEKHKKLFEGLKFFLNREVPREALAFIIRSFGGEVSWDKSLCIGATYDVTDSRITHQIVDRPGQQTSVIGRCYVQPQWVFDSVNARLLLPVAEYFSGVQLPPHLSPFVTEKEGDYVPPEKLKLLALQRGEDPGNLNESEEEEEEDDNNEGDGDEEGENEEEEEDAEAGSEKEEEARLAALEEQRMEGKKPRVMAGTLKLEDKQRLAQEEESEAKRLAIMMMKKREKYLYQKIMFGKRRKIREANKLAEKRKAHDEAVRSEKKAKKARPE

[6] = test system: cysteines in MDA-MB-231 and Ramos cells; format: cell-based, human
[7] = biological target: cysteines in MDA-MB-231 and Ramos cells (Homo sapiens, UniProt Q6PCB5); format: cell-based; details: 200 μM, insitu
Sequence of cysteines in MDA-MB-231 and Ramos cells (Homo sapiens, UniProt Q6PCB5) (Q6PCB5 whole entry): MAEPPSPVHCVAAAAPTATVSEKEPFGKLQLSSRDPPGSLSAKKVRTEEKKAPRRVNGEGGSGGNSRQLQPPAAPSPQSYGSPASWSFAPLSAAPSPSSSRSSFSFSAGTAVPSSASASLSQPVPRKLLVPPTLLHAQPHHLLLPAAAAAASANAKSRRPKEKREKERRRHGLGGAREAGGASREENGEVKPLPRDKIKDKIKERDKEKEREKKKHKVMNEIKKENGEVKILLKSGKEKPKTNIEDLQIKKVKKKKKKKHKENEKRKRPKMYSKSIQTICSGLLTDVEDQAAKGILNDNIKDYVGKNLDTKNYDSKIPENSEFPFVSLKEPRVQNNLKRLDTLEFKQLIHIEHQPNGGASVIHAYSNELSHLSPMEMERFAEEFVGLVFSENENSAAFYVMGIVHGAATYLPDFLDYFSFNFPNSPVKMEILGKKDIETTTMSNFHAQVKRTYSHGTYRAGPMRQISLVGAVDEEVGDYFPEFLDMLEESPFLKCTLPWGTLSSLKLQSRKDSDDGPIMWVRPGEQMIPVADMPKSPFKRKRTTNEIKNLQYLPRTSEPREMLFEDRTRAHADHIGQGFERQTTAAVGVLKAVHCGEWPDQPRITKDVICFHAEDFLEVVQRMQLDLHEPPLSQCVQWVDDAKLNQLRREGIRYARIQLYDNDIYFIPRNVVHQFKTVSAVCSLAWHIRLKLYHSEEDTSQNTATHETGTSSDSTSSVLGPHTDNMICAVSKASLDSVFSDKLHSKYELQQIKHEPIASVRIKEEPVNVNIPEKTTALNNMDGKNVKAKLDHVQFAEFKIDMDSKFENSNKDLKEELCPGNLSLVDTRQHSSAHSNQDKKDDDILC

[8] = biological target: T5, cysteines in MDA-MB-231 and Ramos cells (Homo sapiens, UniProt Q9UL40); format: cell-based; details: 200 μM, insitu
T5 sequence (Q9UL40 1-294): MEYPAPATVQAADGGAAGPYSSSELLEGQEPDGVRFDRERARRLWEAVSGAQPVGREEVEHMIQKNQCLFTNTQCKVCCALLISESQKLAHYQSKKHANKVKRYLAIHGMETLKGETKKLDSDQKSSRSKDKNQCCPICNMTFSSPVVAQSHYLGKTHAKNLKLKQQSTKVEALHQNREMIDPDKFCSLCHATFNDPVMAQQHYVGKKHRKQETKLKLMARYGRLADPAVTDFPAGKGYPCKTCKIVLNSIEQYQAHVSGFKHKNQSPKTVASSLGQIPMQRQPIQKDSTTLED

[9] = biological target: cysteines in MDA-MB-231 and Ramos cells (Homo sapiens, UniProt P46013); format: cell-based; details: 200 μM, insitu
Sequence of cysteines in MDA-MB-231 and Ramos cells (Homo sapiens, UniProt P46013) (P46013 whole entry): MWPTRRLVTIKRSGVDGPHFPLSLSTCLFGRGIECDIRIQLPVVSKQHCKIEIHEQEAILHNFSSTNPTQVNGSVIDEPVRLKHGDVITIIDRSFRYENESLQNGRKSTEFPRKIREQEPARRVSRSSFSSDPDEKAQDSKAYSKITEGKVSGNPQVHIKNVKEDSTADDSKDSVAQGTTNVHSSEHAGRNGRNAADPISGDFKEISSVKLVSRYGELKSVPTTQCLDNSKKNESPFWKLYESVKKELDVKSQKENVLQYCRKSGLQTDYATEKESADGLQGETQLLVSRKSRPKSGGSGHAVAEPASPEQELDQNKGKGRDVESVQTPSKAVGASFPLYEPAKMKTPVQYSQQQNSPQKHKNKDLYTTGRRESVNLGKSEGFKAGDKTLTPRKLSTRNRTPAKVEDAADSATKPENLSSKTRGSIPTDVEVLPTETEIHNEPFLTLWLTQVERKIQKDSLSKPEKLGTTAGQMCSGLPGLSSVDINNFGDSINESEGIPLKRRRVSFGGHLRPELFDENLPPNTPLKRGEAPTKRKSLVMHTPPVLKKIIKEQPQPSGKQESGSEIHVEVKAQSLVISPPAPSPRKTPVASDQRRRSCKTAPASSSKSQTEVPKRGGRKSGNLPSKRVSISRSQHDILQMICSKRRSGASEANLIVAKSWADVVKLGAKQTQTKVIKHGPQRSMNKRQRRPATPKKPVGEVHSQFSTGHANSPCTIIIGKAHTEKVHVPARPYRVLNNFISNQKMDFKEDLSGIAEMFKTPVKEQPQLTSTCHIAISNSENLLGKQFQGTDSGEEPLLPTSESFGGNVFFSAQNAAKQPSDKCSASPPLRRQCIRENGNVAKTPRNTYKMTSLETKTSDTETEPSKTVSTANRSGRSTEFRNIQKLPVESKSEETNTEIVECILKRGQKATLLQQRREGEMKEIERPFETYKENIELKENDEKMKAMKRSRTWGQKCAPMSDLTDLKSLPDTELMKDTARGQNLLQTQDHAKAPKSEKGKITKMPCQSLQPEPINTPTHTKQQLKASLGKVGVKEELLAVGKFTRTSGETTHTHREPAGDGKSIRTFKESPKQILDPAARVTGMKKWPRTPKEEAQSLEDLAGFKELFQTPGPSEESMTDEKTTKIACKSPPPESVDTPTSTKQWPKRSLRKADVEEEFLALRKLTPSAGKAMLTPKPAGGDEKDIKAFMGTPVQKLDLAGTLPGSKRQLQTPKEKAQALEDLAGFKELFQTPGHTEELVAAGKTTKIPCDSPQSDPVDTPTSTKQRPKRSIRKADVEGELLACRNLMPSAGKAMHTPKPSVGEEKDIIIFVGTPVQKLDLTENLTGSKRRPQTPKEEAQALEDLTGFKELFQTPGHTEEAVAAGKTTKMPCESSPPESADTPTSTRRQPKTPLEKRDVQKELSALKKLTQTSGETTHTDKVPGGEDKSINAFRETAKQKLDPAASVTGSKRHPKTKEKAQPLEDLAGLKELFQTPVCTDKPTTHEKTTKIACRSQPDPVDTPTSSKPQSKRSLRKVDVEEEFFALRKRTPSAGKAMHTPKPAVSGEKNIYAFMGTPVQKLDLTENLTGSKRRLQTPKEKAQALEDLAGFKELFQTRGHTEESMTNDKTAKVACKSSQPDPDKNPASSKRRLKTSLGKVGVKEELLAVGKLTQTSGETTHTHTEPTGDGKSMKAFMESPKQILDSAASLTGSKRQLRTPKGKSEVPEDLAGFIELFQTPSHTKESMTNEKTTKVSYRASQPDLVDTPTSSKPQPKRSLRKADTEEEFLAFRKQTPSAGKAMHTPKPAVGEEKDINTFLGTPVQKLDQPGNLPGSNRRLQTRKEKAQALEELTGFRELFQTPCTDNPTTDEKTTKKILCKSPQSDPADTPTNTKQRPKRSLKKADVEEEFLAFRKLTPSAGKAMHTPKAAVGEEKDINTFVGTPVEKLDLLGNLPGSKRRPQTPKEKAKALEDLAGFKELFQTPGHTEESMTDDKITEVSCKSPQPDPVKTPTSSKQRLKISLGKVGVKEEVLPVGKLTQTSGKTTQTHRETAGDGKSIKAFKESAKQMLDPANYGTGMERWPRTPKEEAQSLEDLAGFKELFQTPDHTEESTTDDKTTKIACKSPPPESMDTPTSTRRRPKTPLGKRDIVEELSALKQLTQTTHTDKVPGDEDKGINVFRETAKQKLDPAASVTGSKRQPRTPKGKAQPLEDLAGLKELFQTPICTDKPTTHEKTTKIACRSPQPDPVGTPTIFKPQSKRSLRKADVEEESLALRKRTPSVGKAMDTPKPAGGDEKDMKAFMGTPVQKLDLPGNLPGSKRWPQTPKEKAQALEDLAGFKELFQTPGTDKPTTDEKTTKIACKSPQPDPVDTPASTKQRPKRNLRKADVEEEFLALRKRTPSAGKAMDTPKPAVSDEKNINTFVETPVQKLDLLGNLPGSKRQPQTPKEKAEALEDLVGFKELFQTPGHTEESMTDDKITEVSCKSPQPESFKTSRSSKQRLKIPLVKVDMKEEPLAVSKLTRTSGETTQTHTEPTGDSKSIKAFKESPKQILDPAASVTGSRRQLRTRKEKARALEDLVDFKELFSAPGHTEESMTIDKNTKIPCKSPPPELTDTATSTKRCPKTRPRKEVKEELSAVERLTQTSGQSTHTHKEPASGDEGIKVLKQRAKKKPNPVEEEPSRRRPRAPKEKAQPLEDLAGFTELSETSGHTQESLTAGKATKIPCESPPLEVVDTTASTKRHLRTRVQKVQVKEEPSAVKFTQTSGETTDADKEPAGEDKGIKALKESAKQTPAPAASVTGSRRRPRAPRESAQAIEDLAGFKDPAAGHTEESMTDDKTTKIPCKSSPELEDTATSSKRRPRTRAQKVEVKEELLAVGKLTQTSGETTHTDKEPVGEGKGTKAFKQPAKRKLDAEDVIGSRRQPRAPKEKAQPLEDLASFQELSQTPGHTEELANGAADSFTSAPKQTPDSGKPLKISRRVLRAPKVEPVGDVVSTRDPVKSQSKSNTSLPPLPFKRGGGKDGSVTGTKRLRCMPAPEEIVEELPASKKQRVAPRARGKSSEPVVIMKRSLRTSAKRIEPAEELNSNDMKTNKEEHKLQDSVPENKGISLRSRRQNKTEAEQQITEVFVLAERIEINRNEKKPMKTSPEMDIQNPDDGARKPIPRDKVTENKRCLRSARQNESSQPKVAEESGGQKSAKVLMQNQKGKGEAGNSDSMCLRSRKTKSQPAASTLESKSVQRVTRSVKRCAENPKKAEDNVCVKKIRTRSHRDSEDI

With `O=C(CCl)N1CCN(S(=O)(=O)c2ccccc2F)CC1` [compound 10] the “isoTOP-ABPP ratio, cysteine P10398_C597” value [1]; 231 was 1.4, the “isoTOP-ABPP ratio, cysteine Q16667_C39” value [2]; 231 was 2.3 and the “isoTOP-ABPP ratio, cysteine Q8N2W9_C326” value [3]; 231 was 4.5. For the same compound, the “isoTOP-ABPP ratio, cysteine Q99798_C385” value [4] was 0.7.

In the case of `Cn1cc(S(=O)(=O)N2CCOCC2)cc1C(=O)NC(=O)CCl` [compound 11], the “isoTOP-ABPP ratio, cysteine O00541_C272” value ([5]; 100 μM in situ 231) was 1.0, the “isoTOP-ABPP ratio, cysteine E2QRD5_C183” value ([6]; 100 μM in situ 231) was 0.9 and the “proteomic reactivity in situ (in words)” value ([6]; in situ, 2 h, versus in vitro) was “notably devoid of activity in situ; also recorded: notably lower reactivity in situ versus in vitro”.

`O=C(CCl)NC(=O)NC12CC3CC(CC(C3)C1)C2` [compound 12] was tested, and the “isoTOP-ABPP ratio, cysteine Q6PCB5_C280” value [7]; 231 was 20.0 and the “isoTOP-ABPP ratio, cysteine Q9UL40_C68” value [8]; 231 was 20.0.

In the case of `O=C(CCl)NCCc1c[nH]c2ccccc12` [compound 13], the “isoTOP-ABPP ratio, cysteine O00541_C272” value ([5]; 200 μM, insitu, 231) was 1.4, the “isoTOP-ABPP ratio, cysteine P10398_C597” value ([1]; ramos) was 1.0 and the “isoTOP-ABPP ratio, cysteine Q16667_C39” value ([2]; ramos) was 1.2. The “isoTOP-ABPP ratio, cysteine Q6PCB5_C280” value ([7]; ramos) was 0.8, the “isoTOP-ABPP ratio, cysteine Q8N2W9_C326” value ([3]; ramos) was 20.0 and the “isoTOP-ABPP ratio, cysteine Q9UL40_C68” value ([8]; ramos) was 20.0.

In the case of `O=C(CCl)NC12CC3CC(CC(C3)C1)C2` [compound 21], the “isoTOP-ABPP ratio, cysteine P10398_C597” value [1]; 231 was 0.7, the “isoTOP-ABPP ratio, cysteine Q16667_C39” value [2]; 231 was 0.8 and the “isoTOP-ABPP ratio, cysteine Q8N2W9_C326” value [3]; 231 was 1.0. The “isoTOP-ABPP ratio, cysteine Q99798_C385” value [4] was 2.0 and the “isoTOP-ABPP ratio, cysteine E2QRD5_C183” value ([6]; 200 μM, insitu, 231) was 0.8.

With `CC(C)CCOCCNC(=O)CCl` [compound 27] the “isoTOP-ABPP ratio Q6PCB5_C280” value [7]; 231 was 1.0 and the “isoTOP-ABPP ratio Q9UL40_C68” value [8]; 231 was 1.9.

For `O=C(CCl)N1CCN(CC(=O)N2CCOCC2)CC1` [compound 29], the “isoTOP-ABPP ratio P10398_C597” value ([1]; ramos) was 1.2, the “isoTOP-ABPP ratio P46013_C903” value ([9]; ramos) was 1.6 and the “isoTOP-ABPP ratio Q16667_C39” value ([2]; ramos) was 1.7. For the same compound, the “isoTOP-ABPP ratio Q6PCB5_C280” value ([7]; ramos) was 1.4 and the “isoTOP-ABPP ratio Q9UL40_C68” value ([8]; ramos) was 2.4.

In the case of `C=CC(=O)N(Cc1cccnc1)c1cc(C(F)(F)F)cc(C(F)(F)F)c1` [compound 31], the “isoTOP-ABPP ratio E2QRD5_C183” value ([6]; 200 μM, insitu, 231) was 0.8.

In the case of `C=CC(=O)Nc1cc(F)c(N2CCN(C(=O)OC(C)(C)C)CC2)c(F)c1` [compound 38], the “isoTOP-ABPP ratio P46013_C903” value [9]; 231 was 1.1 and the “isoTOP-ABPP ratio Q8N2W9_C326” value [3]; 231 was 0.9.

For `Cc1ccc(C=C(C#N)C(=O)NCCN2CCOCC2)cc1` [compound 41], the “isoTOP-ABPP ratio, O00541_C272” value ([5]; 200 μM, insitu, 231) was 0.9, the “isoTOP-ABPP ratio P46013_C903” value [9]; 231 was 1.0 and the “isoTOP-ABPP ratio Q8N2W9_C326” value [3]; 231 was 0.8. The “isoTOP-ABPP ratio Q99798_C385” value [4] was 0.1 and the “isoTOP-ABPP ratio E2QRD5_C183” value ([6]; 200 μM, insitu, 231) was 0.5.

For `CC1CCc2ccccc2N1C(=O)CCl` (stereo not shown) [compound 45], the “isoTOP-ABPP ratio P46013_C903” value [9]; 231 was 20.0.

In the case of `O=C(CCl)Nc1cccc2ncccc12` [compound 51], the “isoTOP-ABPP ratio P46013_C903” value [9]; 231 was 1.1.
